Data reported in US7659251B2, “Ligand for G-protein coupled receptor FPRL2” (priority 2004, dated 2010).

How the values were obtained:
Type in all cases: cell-based
[1] = molecular target: T1, FPR (Homo sapiens, UniProt P21462, E346A/V101L); experiment: cAMP accumulation assay (HTRF, forskolin) on FPR-expressing CHO-K1 cells
T1 construct: expressed in transfected cells; host or cells: CHO-K1 (with or without Galpha16 and apoaequorin)
T1 sequence (P21462 1-350 V101L/E346A): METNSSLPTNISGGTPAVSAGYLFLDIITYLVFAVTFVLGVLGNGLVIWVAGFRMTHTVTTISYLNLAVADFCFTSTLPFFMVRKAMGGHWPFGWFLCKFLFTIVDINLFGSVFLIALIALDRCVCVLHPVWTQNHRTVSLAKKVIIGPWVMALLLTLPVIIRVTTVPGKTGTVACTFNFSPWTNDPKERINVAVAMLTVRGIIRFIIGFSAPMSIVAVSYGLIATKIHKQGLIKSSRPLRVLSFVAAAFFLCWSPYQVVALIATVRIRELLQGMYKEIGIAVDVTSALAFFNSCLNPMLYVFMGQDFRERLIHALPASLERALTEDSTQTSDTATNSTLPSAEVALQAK
Procedure: The cAMP concentrations were determined using a homogeneous time-resolved fluorescence (HTRF) kit (Cis Bio International). Briefly, cells were detached, resuspended in Krebs Ringer Hepes buffer containing 1 mM 3-Isobutyl-1-methylxanthine, and submitted to 10 μM forskolin, alone or together with increasing concentrations of agonists for 30 min at room temperature. The reaction was stopped by the successive addition of cAMP-XL665 and anti-cAMP cryptate diluted in lysis buffer. The plates were incubated for 60 min at room temperature and read on a Rubystar fluorimeter (BMG). […] A calibration curve was obtained by plotting delta F % versus cAMP concentrations. […] The aequorin-based assay was performed with or without overnight pretreatment with 100 ng/ml Pertussis toxin. […] For FPRL2 polymorphism analysis, HEK cells were transiently transfected with empty and wild-type or Asp338H is FPRL2-containing pcdna vector using calcium phosphate method. Cells were recovered 48 hours later and used for FACS or cAMP experiments.

[2] = molecular target: T1, FPR; experiment: Aequorin-based assay on CHO-K1 cells expressing FPR
Text: The human coding sequences (accession numbers AC005946, M84562 and M60626, respectively) were amplified by PCR from human genomic DNA, cloned into the pcDNA3 (Invitrogen) and pEFIN3 (Euroscreen) vectors and sequenced. The pEFIN3 constructs were transfected, using Fugene 6, into CHO-K1 cells, expressing or not Gα16 and apoaequorin. G418-resistant clones were characterized for receptor expression by Northern blotting. […] Results were expressed as relative light units (RLU) or as the percentage of the response to 20 μM ATP.

[3] = molecular target: T2, FPRL2 (Homo sapiens, UniProt P25089); experiment: Cell surface FPRL2 on DCs by FACS after culture with F2L; design: expressed in transfected cells; host or cells: CHO-K1; details: 1 μM F2L for 48 hours; not shown
T2 sequence (P25089 1-353): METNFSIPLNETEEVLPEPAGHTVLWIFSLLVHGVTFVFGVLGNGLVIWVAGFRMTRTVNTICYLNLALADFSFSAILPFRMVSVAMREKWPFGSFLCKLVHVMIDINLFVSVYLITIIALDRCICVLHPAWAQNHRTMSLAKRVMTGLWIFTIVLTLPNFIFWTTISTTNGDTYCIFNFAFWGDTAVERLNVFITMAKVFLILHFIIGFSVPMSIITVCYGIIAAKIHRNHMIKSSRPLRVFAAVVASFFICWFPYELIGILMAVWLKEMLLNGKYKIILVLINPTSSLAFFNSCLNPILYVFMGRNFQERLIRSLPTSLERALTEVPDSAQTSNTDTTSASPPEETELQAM
Procedure: Antibodies were generated by injecting BALB/c mice with 100 μg pcDNA3-FPRL2 as described (45). Sera were tested by FACS on the CH0-K1-FPRL2 cell line, and immune mice were used to generate monoclonal antibodies by standard hybridoma technology, using the NSO myeloma cell line. The Ig class of selected hybridomas was determined with a mouse mAb isotyping kit (IsoStrip, Boehringer Mannheim). The antibodies were tested using flow cytometry, performed using anti-FPRL2 antibodies or control IgG2a at 1 μg/ml (for CHO-K1 cells) or 5 μg/ml (for primary cells) in PBS containing 0.1% BSA, 0.1% sodium azide, and FITC-conjugated γ-chain-specific goat anti-mouse IgG (Sigma) as secondary antibody. Fluorescence of 10,000 cells was assayed using a FACScan flow cytofluorimeter (Beckton Dickinson). Intracytoplasmic staining was realised using Cytoperm/Cytowash (Becton Dickinson) according to manufacturer's instructions.

[4] = molecular target: T2, FPRL2; experiment: Aequorine assay on human FPRL2 expressing cells (Example 9); design: expressed in transfected cells; host or cells: CHO-K1 (with or without Galpha16 and apoaequorin); details: peptides 2.5 μM to 0.4 nM, Mab 500 ug/ml to 5 ug/ml; FIG. 15
Procedure: Functional responses were analyzed by recording the luminescence of aequorine in human FPRL2 and FPRL1 expressing cells following the addition of agonists or purified monoclonal antibodies.
In brief, cells were collected from plates with PBS containing 5 mM EDTA, pelleted, resuspend at 5×10^6 cells/ml in DMEM/F-12 medium containing 0.1% bovine serum albumin, incubated with 5 μM coelenterazine H (molecular probes, Inc. Eugene, Oreg.) for 4 h at room temperature and diluted in DMEM/F-12 medium at a concentration of 5×10^5 cells/ml. Cells where then mixed in an 96 wells plate with the ligands or purified monoclonal antibodies. The light emission was recorded over 60 sec using a microlumat Luminometer (EG&G Berthold, microplate luminometer LB 96V).
Each data point is in duplicate. […] Human FPRL1 expressing cells were used as negative control to Mab. Functionality of these cells has been control with Humanin.

[5] = test system: wild-type CHO-K1 cells, ChemerinR and other GPCRs; experiment: Aequorin-based assay on wild-type CHO-K1 cells and CHO-K1 cells expressing ChemerinR and other GPCRs; details: data not shown
Text: The human coding sequences (accession numbers AC005946, M84562 and M60626, respectively) were amplified by PCR from human genomic DNA, cloned into the pcDNA3 (Invitrogen) and pEFIN3 (Euroscreen) vectors and sequenced. The pEFIN3 constructs were transfected, using Fugene 6, into CHO-K1 cells, expressing or not Gα16 and apoaequorin. G418-resistant clones were characterized for receptor expression by Northern blotting. A functional assay based on the luminescence of mitochondrial aequorin was performed as described (42). Results were expressed as relative light units (RLU) or as the percentage of the response to 20 μM ATP.

## CC[C@H](C)[C@H](NC(=O)[C@H](CCSC)NC(=O)CNC(=O)[C@H](CC(C)C)NC(=O)[C@H](CCSC)NC(C)=O)C(=O)N[C@@H](CCCCN)C(=O)N[C@@H](CC(N)=O)C(=O)N[C@@H](CO)C(=O)N[C@@H](CC(C)C)C(=O)N[C@@H](Cc1ccccc1)C(=O)NCC(=O)N[C@@H](CO)C(=O)N[C@H](C(=O)N[C@@H](CCC(=O)O)C(=O)N[C@H](C(=O)N[C@@H](Cc1c[nH]c2ccccc12)C(=O)N1CCC[C@H]1C(=O)N[C@@H](Cc1c[nH]c2ccccc12)C(=O)N[C@@H](CCC(N)=O)C(=O)N[C@H](C(=O)N[C@@H](CC(C)C)C(=O)O)C(C)C)[C@@H](C)O)C(C)C [F2L]
[1]; 1 μM F2L
  inhibition of cAMP accumulation on FPR: only partial inhibition
[1]; FPR, −Log of EC50 in Mol/L, mean ± s.e.m., read-out: pEC50 (cAMP assay) (converted)
  EC50: > 1000 nM
[2]; FIG. 6
  activation of FPR: not able to activate
[2]; FPR, −Log of EC50 in Mol/L, mean ± s.e.m., read-out: pEC50 (sequorin assay) (converted)
  EC50: > 1000 nM
[2]; up to 5 μM
  activity in the aequorin assay on FPR: no activity was detected
[3]
  cell surface FPRL2 on DCs: down regulation
[4]
  activation of human FPRL2 expressing cells: activates
[5]
  activity on all other cell lines tested: completely inactive
